Tests used:
Type in all cases: in vivo
corn (Zea mays) [1] = experiment: Test G Post-Emergence Protocol; details: Zea mays, post-emergence, 312 h, read-out: Corn damage rating; for plant injury at 15.625 g/ha: 15.625 g ai/ha, evaluated after 13 days (100=total damage to plant; 0=no damage to plant); for plant injury at 62.5 g/ha: 62.5 g ai/ha; for plant injury at 62.5 g/ha / plant injury at 250 g/ha: evaluated after 13 days, 100=total damage to plant, 0=no damage to plant; for plant injury at 250 g/ha: 250 g ai/ha
Procedure, shortened: (§1)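 Scores run 0 (no damage) to 100 (total damage) and were taken 13 days after spraying. Plants had been raised in pots for 8 days under glasshouse control (24/16 °C, 14 h photoperiod, 65% humidity) and then treated at 15.625, 62.5 or 250 g/ha.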

[2] = tested on: ivy-leaved morning glory (Ipomoea hederacea); experiment: Test G Post-Emergence Protocol; details: Ipomoea, post-emergence, 312 h, read-out: Morningglory, Ivy-leaved damage rating; for pest or weed control at 15.625 g/ha: 15.625 g ai/ha, evaluated after 13 days (100=total damage to plant; 0=no damage to plant); for pest or weed control at 62.5 g/ha: 62.5 g ai/ha; for pest or weed control at 62.5 g/ha / pest or weed control at 250 g/ha: evaluated after 13 days, 100=total damage to plant, 0=no damage to plant; for pest or weed control at 250 g/ha: 250 g ai/ha
Procedure, shortened: as §1

[3] = tested on: barnyardgrass (Echinochloa crus-galli); experiment: Test G Post-Emergence Protocol; details: Echinochloa crus-galli, post-emergence, 312 h, read-out: Barnyardgrass damage rating; for pest or weed control at 15.625 g/ha: 15.625 g ai/ha, evaluated after 13 days (100=total damage to plant; 0=no damage to plant); for pest or weed control at 62.5 g/ha: 62.5 g ai/ha; for pest or weed control at 62.5 g/ha / pest or weed control at 250 g/ha: evaluated after 13 days, 100=total damage to plant, 0=no damage to plant; for pest or weed control at 250 g/ha: 250 g ai/ha
Procedure, shortened: as §1

[4] = tested on: giant foxtail (Setaria faberi); experiment: Test G Post-Emergence Protocol; details: Setaria faberi, post-emergence, 312 h, read-out: Foxtail, Giant damage rating; for pest or weed control at 15.625 g/ha: 15.625 g ai/ha, evaluated after 13 days (100=total damage to plant; 0=no damage to plant); for pest or weed control at 62.5 g/ha: 62.5 g ai/ha; for pest or weed control at 62.5 g/ha / pest or weed control at 250 g/ha: evaluated after 13 days, 100=total damage to plant, 0=no damage to plant; for pest or weed control at 250 g/ha: 250 g ai/ha
Procedure, shortened: as §1

[5] = tested on: redroot pigweed (Amaranthus retroflexus); experiment: Test G Post-Emergence Protocol; details: Amaranthus retroflexus, post-emergence, 312 h, read-out: Pigweed, Redroot damage rating; for pest or weed control at 15.625 g/ha: 15.625 g ai/ha, evaluated after 13 days (100=total damage to plant; 0=no damage to plant); for pest or weed control at 62.5 g/ha: 62.5 g ai/ha; for pest or weed control at 62.5 g/ha / pest or weed control at 250 g/ha: evaluated after 13 days, 100=total damage to plant, 0=no damage to plant; for pest or weed control at 250 g/ha: 250 g ai/ha
Procedure, shortened: as §1

[6] = tested on: velvetleaf (Abutilon theophrasti); experiment: Test G Post-Emergence Protocol; details: Abutilon theophrasti, post-emergence, 312 h, read-out: Velvetleaf damage rating; for pest or weed control at 15.625 g/ha: 15.625 g ai/ha, evaluated after 13 days (100=total damage to plant; 0=no damage to plant); for pest or weed control at 62.5 g/ha: 62.5 g ai/ha; for pest or weed control at 62.5 g/ha / pest or weed control at 250 g/ha: evaluated after 13 days, 100=total damage to plant, 0=no damage to plant; for pest or weed control at 250 g/ha: 250 g ai/ha
Procedure, shortened: as §1

corn (Zea mays) [7] = experiment: Test G Pre-Emergence Protocol; details: Zea mays, pre-emergence, 312 h, evaluated after 13 days; for plant injury at 15.625 g/ha: 15.625 g ai/ha; for plant injury at 15.625 g/ha / plant injury at 250 g/ha: read-out: Corn damage rating (100=total damage to plant; 0=no damage to plant); for plant injury at 62.5 g/ha: 62.5 g ai/ha, 100=total damage to plant, 0=no damage to plant, read-out: Corn damage rating; for plant injury at 250 g/ha: 250 g ai/ha
Procedure, shortened: (§2)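 Pots of seeds in standard soil were grown for one day in a glasshouse (24/16 °C day/night, 14 h light, 65% humidity), then sprayed with compound in acetone/water 50:50 with 0.5% Tween 20 at 15.625, 62.5 or 250 g/ha. Damage was scored after 13 days on a 0 (none) to 100 (total) scale.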

[8] = tested on: ivy-leaved morning glory (Ipomoea hederacea); experiment: Test G Pre-Emergence Protocol; details: Ipomoea, pre-emergence, 312 h, evaluated after 13 days; for pest or weed control at 15.625 g/ha: 15.625 g ai/ha; for pest or weed control at 15.625 g/ha / pest or weed control at 250 g/ha: read-out: Morningglory, Ivy-leaved damage rating (100=total damage to plant; 0=no damage to plant); for pest or weed control at 62.5 g/ha: 62.5 g ai/ha, 100=total damage to plant, 0=no damage to plant, read-out: Morningglory, Ivy-leaved damage rating; for pest or weed control at 250 g/ha: 250 g ai/ha
Procedure, shortened: as §2

[9] = tested on: barnyardgrass (Echinochloa crus-galli); experiment: Test G Pre-Emergence Protocol; details: Echinochloa crus-galli, pre-emergence, 312 h, evaluated after 13 days; for pest or weed control at 15.625 g/ha: 15.625 g ai/ha; for pest or weed control at 15.625 g/ha / pest or weed control at 250 g/ha: read-out: Barnyardgrass damage rating (100=total damage to plant; 0=no damage to plant); for pest or weed control at 62.5 g/ha: 62.5 g ai/ha, 100=total damage to plant, 0=no damage to plant, read-out: Barnyardgrass damage rating; for pest or weed control at 250 g/ha: 250 g ai/ha
Procedure, shortened: as §2

[10] = tested on: giant foxtail (Setaria faberi); experiment: Test G Pre-Emergence Protocol; details: Setaria faberi, pre-emergence, 312 h, evaluated after 13 days; for pest or weed control at 15.625 g/ha: 15.625 g ai/ha; for pest or weed control at 15.625 g/ha / pest or weed control at 250 g/ha: read-out: Foxtail, Giant damage rating (100=total damage to plant; 0=no damage to plant); for pest or weed control at 62.5 g/ha: 62.5 g ai/ha, 100=total damage to plant, 0=no damage to plant, read-out: Foxtail, Giant damage rating; for pest or weed control at 250 g/ha: 250 g ai/ha
Procedure, shortened: as §2

[11] = tested on: redroot pigweed (Amaranthus retroflexus); experiment: Test G Pre-Emergence Protocol; details: Amaranthus retroflexus, pre-emergence, 312 h, evaluated after 13 days; for pest or weed control at 15.625 g/ha: 15.625 g ai/ha; for pest or weed control at 15.625 g/ha / pest or weed control at 250 g/ha: read-out: Pigweed, Redroot damage rating (100=total damage to plant; 0=no damage to plant); for pest or weed control at 62.5 g/ha: 62.5 g ai/ha, 100=total damage to plant, 0=no damage to plant, read-out: Pigweed, Redroot damage rating; for pest or weed control at 250 g/ha: 250 g ai/ha
Procedure, shortened: as §2

[12] = tested on: velvetleaf (Abutilon theophrasti); experiment: Test G Pre-Emergence Protocol; details: Abutilon theophrasti, pre-emergence, 312 h, evaluated after 13 days; for pest or weed control at 15.625 g/ha: 15.625 g ai/ha; for pest or weed control at 15.625 g/ha / pest or weed control at 250 g/ha: read-out: Velvetleaf damage rating (100=total damage to plant; 0=no damage to plant); for pest or weed control at 62.5 g/ha: 62.5 g ai/ha, 100=total damage to plant, 0=no damage to plant, read-out: Velvetleaf damage rating; for pest or weed control at 250 g/ha: 250 g ai/ha
Procedure, shortened: as §2

SMILES	plant injury at 15.625 g/ha (corn (Zea mays) [1])	plant injury at 62.5 g/ha (corn (Zea mays) [1])	plant injury at 250 g/ha (corn (Zea mays) [1])	pest or weed control at 15.625 g/ha [2]	pest or weed control at 62.5 g/ha [2]	pest or weed control at 250 g/ha [2]	pest or weed control at 15.625 g/ha [3]	pest or weed control at 62.5 g/ha [3]	pest or weed control at 250 g/ha [3]	pest or weed control at 15.625 g/ha [4]	pest or weed control at 62.5 g/ha [4]	pest or weed control at 250 g/ha [4]	pest or weed control at 15.625 g/ha [5]	pest or weed control at 62.5 g/ha [5]	pest or weed control at 250 g/ha [5]	pest or weed control at 15.625 g/ha [6]	pest or weed control at 62.5 g/ha [6]	pest or weed control at 250 g/ha [6]	plant injury at 15.625 g/ha (corn (Zea mays) [7])	plant injury at 62.5 g/ha (corn (Zea mays) [7])	other results
CN1C[C@H](c2ccc(C(F)(F)F)cc2)[C@@H](C(=O)Nc2cnccc2C#N)C1=O (racemic) [Compound 1760]	0%	0%	10%	0%	0%	20%	0%	0%	10%	0%	0%	20%	0%	0%	0%	0%	0%	10%	0%	0%	plant injury at 250 g/ha (corn (Zea mays) [7]): 0%; pest or weed control at 15.625 g/ha [8]: 0%; pest or weed control at 62.5 g/ha [8]: 0%; pest or weed control at 250 g/ha [8]: 0%; pest or weed control at 15.625 g/ha [9]: 0%; pest or weed control at 62.5 g/ha [9]: 0%; pest or weed control at 250 g/ha [9]: 0%; pest or weed control at 15.625 g/ha [10]: 0%; pest or weed control at 62.5 g/ha [10]: 0%; pest or weed control at 250 g/ha [10]: 30%; pest or weed control at 15.625 g/ha [11]: 0%; pest or weed control at 62.5 g/ha [11]: 0%; pest or weed control at 250 g/ha [11]: 0%; pest or weed control at 15.625 g/ha [12]: 0%; pest or weed control at 62.5 g/ha [12]: 0%; pest or weed control at 250 g/ha [12]: 0%
C=Cc1cccc([C@@H]2CN(C)C(=O)[C@H]2C(=O)Nc2cccc(F)c2F)c1 (racemic) [Compound 1762]	20%	30%	80%	30%	60%	70%	10%	50%	80%	60%	70%	80%	20%	0%	10%	10%	0%	70%	0%	30%	plant injury at 250 g/ha (corn (Zea mays) [7]): 80%; pest or weed control at 15.625 g/ha [8]: 0%; pest or weed control at 62.5 g/ha [8]: 10%; pest or weed control at 250 g/ha [8]: 10%; pest or weed control at 15.625 g/ha [9]: 70%; pest or weed control at 62.5 g/ha [9]: 80%; pest or weed control at 250 g/ha [9]: 80%; pest or weed control at 15.625 g/ha [10]: 70%; pest or weed control at 62.5 g/ha [10]: 80%; pest or weed control at 250 g/ha [10]: 80%; pest or weed control at 15.625 g/ha [11]: 0%; pest or weed control at 62.5 g/ha [11]: 10%; pest or weed control at 250 g/ha [11]: 20%; pest or weed control at 15.625 g/ha [12]: 0%; pest or weed control at 62.5 g/ha [12]: 0%; pest or weed control at 250 g/ha [12]: 10%
